This is an account of results in US20260137706A1, “METHODS OF TREATING INFLAMMATORY DISEASES” (INTERLINE THERAPEUTICS, INC., priority 2023, published 2026).

Test [1] concerns the target T1, GST-RIPK2 fusion protein (human RIPK2, amino acids 1-310) (Homo sapiens, UniProt O43353).
T1 construct: made in house; host or cells: baculovirus infected Sf9 cells
Put plainly: RIPK2 binding competition assay (TR-FRET, Tracer 199 displacement). As to conditions: 10 nM Tracer 199, 1 nM GST-RIPK2, read-out: RIPK2 IC50. A digest of the protocol:
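IC50 derived from the TR-FRET emission ratio (665/620 nm, 337 nm excitation), normalized with no-inhibitor and no-enzyme controls. Incubation 45 min at 22 °C, pH 7.5 Tris buffer, with final 10 nM tracer, 1 nM Sf9-expressed GST-RIPK2 fragment (aa 1-310) and 0.5 nM Tb-labelled anti-GST.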
(In general: Time-resolved FRET reads energy transfer from a long-lived donor to a nearby acceptor.)

For test [2], the target named is T2, binding of His-XIAP(BIR2)-avi fusion protein to GST-RIPK2 fusion protein (RIPK2/XIAP) (Homo sapiens, UniProt O43353).
T2 construct: made in house; host or cells: baculovirus infected Sf9 cells
T2 sequence (O43353 1-310 limits assumed): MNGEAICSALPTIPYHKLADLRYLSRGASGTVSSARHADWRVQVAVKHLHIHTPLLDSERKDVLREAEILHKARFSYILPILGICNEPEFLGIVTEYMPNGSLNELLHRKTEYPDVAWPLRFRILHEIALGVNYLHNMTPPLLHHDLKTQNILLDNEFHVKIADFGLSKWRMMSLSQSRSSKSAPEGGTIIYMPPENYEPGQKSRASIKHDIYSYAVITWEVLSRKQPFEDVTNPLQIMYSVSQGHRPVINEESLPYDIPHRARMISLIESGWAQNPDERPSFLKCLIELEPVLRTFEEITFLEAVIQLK
Briefly: RIPK2-XIAP binding competition PPI assay (TR-FRET). As to conditions: RIPK2/XIAP binding competition PPI assay; for IC50: read-out: PPI IC50 bin; for Emax: Amax, read-out: PPI Amax bin. The method, boiled down:
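Compounds (in DMSO, 100-fold stock) incubated 120 min at 23 °C with 1 nM GST-RIPK2 (aa 1-310) and 25 nM His-XIAP(BIR2 aa 152-231)-avi, plus anti-His-XL665 and anti-GST-Tb, in pH 7.5 Tris buffer. Read-out: 665/520 nm emission ratio. Normalized to no-inhibitor (0%) and 50 nM GSK583 (−100%); Amax binned A–D.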

Test [3] has as its system NF-κB pathway (SEAP) in THP1-Dual cells. Briefly: THP-1 Dual cell SEAP assay (L18-MDP stimulated). The conditions noted are these: Homo sapiens, THP1-Dual, read-out: NF-κB THP1 IC50 bin. It counts as cell-based. The method, boiled down: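 IC50 values derive from non-linear regression of % inhibition, calculated against DMSO/L18-MDP-treated wells after media-only subtraction. NF-κB SEAP activity was read at OD 620-655 nm (QUANTI-Blue, 2 h, 37 °C) from supernatants of THP1-Dual cells. Cells had been compound-treated 30 min before overnight (20-24 h) stimulation with 10 ng/mL final L18-MDP.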

T1 sequence (O43353 1-310): as the sequence (O43353 1-310 limits assumed) above

As a reminder, the IC50 is the point on the concentration scale where inhibition reaches its midpoint. On to `CC(C)(C)C(C)(O)c1cn2c(-c3cc(F)c(N)nc3F)cnc2cc1OCCO` (centres unmarked) [Example 189, 2-(3-(6-amino-2,5-difluoropyridin-3-yl)-7-(2-hydroxyethoxy)imidazo[1,2-a]pyridin-6-yl)-3,3-dimethylbutan-2-ol], for which the IC50 in test [1] is above 20 nM; in test [2], above 20 nM; in test [3], above 1000 nM.
As for `CC(C)(C)S(=O)(=O)c1cn2c(-c3cc(Br)c(N)nc3F)cnc2cc1OCCO` [Example 186, 2-((3-(6-amino-5-bromo-2-fluoropyridin-3-yl)-6-(tert-butylsulfonyl)imidazo[1,2-a]pyridin-7-yl)oxy)ethan-1-ol], the IC50 in test [1] was in the range of 2.5 to 20 nM; in test [2], 2.5 to 20 nM; in test [3], 250 to 1000 nM. Further, the Emax in test [2] is above 80%.
Take `CC(C)(C)S(=O)(=O)c1cn2c(-c3cc4cc[nH]c4nc3F)cnc2cc1OCCO` [Example 52, 2-((6-(tert-butylsulfonyl)-3-(6-fluoro-1H-pyrrolo[2,3-b]pyridin-5-yl)imidazo[1,2-a]pyridin-7-yl)oxy)ethan-1-ol]: the figures for the IC50 in test [1], in test [2] and in test [3] were below 1 nM, below 1 nM and below 50 nM, respectively. Besides, the Emax in test [2] was above 80%.
As for `C[C@H](O)CCOc1cc2ncc(-c3cc(F)c(N)nc3F)n2cc1S(=O)(=O)C(C)(C)C` [Example 34, (S)-4-((3-(6-amino-2,5-difluoropyridin-3-yl)-6-(tert-butylsulfonyl)imidazo[1,2-a]pyridin-7-yl)oxy)butan-2-ol], the half-inhibitory concentration (IC50) in test [1] was 2.5 to 20 nM; in test [2] it was 2.5 to 20 nM; in test [3] it was 250 to 1000 nM. For the same compound, the Emax in test [2] is above 80%.
With `Cc1cc2cc(-c3cnc4cc(OCCO)c(S(=O)(=O)C(C)(C)C)cn34)cnc2[nH]1` [Example 232, 2-((6-(tert-butylsulfonyl)-3-(2-methyl-1H-pyrrolo[2,3-b]pyridin-5-yl)imidazo[1,2-a]pyridin-7-yl)oxy)ethan-1-ol], the results for the half-inhibitory concentration (IC50) in test [1], in test [2] and in test [3] were 2.5 to 20 nM, below 1 nM and above 1000 nM, respectively. Also, the Emax in test [2] was in the range of 30 to 55%.
As to `COc1cc2ncc(-c3cc(F)c(OC)c(NS(=O)(=O)c4cnn(CCO)c4)c3)n2cc1C(F)(F)F` [Example 304, N-(3-fluoro-2-methoxy-5-(7-methoxy-6-(trifluoromethyl)imidazo[1,2-a]pyridin-3-yl)phenyl)-1-(2-hydroxyethyl)-1H-pyrazole-4-sulfonamide], the figures for the half-inhibitory concentration (IC50) in test [1], in test [2] and in test [3] were 2.5 to 20 nM, 2.5 to 20 nM and above 1000 nM, respectively. For the same compound, in test [2], the Emax was above 80%.
As for `COc1cc2ncc(-c3ccc4c(c3)nc(N)n4C)n2cc1S(=O)(=O)C(C)(C)C` [Example 115, 5-(6-(tert-butylsulfonyl)-7-methoxyimidazo[1,2-a]pyridin-3-yl)-1-methyl-1H-benzo[d]imidazol-2-amine], the IC50 in test [1] was above 20 nM; in test [2], above 20 nM; in test [3], above 1000 nM. Besides, the Emax in test [2] was 55 to 80%.
On to `COc1cc2ncc(-c3cc(F)c(OC)c(NS(=O)(=O)c4cnn(C)c4)c3)n2cc1C1(F)CCN(C)CC1` [Example 234, N-(3-fluoro-5-(6-(4-fluoro-1-methylpiperidin-4-yl)-7-methoxyimidazo[1,2-a]pyridin-3-yl)-2-methoxyphenyl)-1-methyl-1H-pyrazole-4-sulfonamide], for which the concentration for half-maximal inhibition (IC50) was below 1 nM in test [1], below 1 nM in test [2] and below 50 nM in test [3]. Also, in test [2], the Emax was above 80%.
As for `C[C@H](CO)COc1cc2ncc(-c3cc4cc[nH]c4nc3F)n2cc1S(=O)(=O)C(C)(C)C` [Example 228, (R)-3-((6-(tert-butylsulfonyl)-3-(6-fluoro-1H-pyrrolo[2,3-b]pyridin-5-yl)imidazo[1,2-a]pyridin-7-yl)oxy)-2-methylpropan-1-ol], the values for the concentration for half-maximal inhibition (IC50) in test [1], in test [2] and in test [3] were below 1 nM, below 1 nM and below 50 nM, respectively. In addition, the Emax in test [2] was above 80%.
